Values joined by “and” are separate entries in the source; they are usually repeats but may differ in a detail not shown here. Equal values may be shown once. Read-outs that look alike come from different tables or passages of the source.
What was measured:
RAW cells = assay: Imaging of endogenous H2O2 upon ionomycin stimulation in RAW cells; assay type: cell-based; conditions: 5 μM probe
Source text: After detecting exogenously added H2O2 in cells, the focus shifted to more biologically relevant, endogenous H2O2. It was attempted to monitor endogenous H2O2 production upon stimulation with ionomycin in RAW cells. […] In contrast, with probe 1, a significant response was observed within 30 s after the addition of ionomycin relative to the baseline fluorescence (FIG. 24B-C) and peaked at 48 s.

[1] = Fluorescence intensity of selenide 1 and phenol 5; assay type: physicochemical; conditions: pH 7
Experimental: All fluorescence measurements (excitation 490 nm, emission 510-570 nm) were carried out using a Promega Biosystems Modulus II Microplate Reader or a HoribaMax Fluorometer unless otherwise stated. Data analysis was performed using GraphPad Prism 8.
The fluorescence intensity of selenide 1 and phenol 5 were investigated. Solutions containing ultrapure water (681 μL), […] phosphate pH 7 buffer (31 μL), DMSO (28.1 μL), and 80 μM 1 or phenol 5 in DMSO (9.4 μL) were made. Aliquots of these solutions (200 μL) were transferred to the wells of a black 96-well plate and the fluorescence was measured. As evident from FIG. 10 and Table 1, the difference in fluorescence intensity of probe 1 and phenol 5, is 27-fold. Generally, O-alkylation of Pittsburgh Green suppresses the fluorescence by 200-400 fold. The somewhat modest fluorescence increase in the current system is attributed to the trace contamination of the fluorescent compound 5 during the purification of the nonfluorescent probe 1.

[2] = 100 nM in water
Experimental: The pH dependence of phenol 5 was also investigated. Phenol 5 was dissolved in water to a concentration of 100 nM. This solution (100 mL) was titrated with HCl and NaOH. The pH was measured after each addition before measuring the fluorescence using a Horiba FluoroMax3 fluorescence spectrometer. Fluorescence was measured using 1 nm slit widths with an excitation wavelength of 496 nm and an emission wavelength of 510 nm, the results of which are shown in FIG. 23 and Table 15.

CC(=O)Oc1cc2c(cc1Cl)C(c1ccccc1C(=O)O)c1cc(Cl)c(OC(C)=O)cc1O2 [dihydrodichlorofluorescein acetate, reference compound]
fluorescence response upon ionomycin addition (RAW cells): fluorescence increase could hardly be observed

O=c1ccc2c(-c3ccccc3CO)c3ccc(O)cc3oc-2c1 [Compound 5]
Fluorescence Intensity [1]: 244,687 and 247,204 and 246,848
Fluorescence Intensity ([2]; pH 3.99): 920
Fluorescence Intensity ([2]; pH 4.20): 930
Fluorescence Intensity ([2]; pH 4.33): 1,070
Fluorescence Intensity ([2]; pH 4.48): 1,450
Fluorescence Intensity ([2]; pH 4.65): 1,440
Fluorescence Intensity ([2]; pH 4.77): 1,670
Fluorescence Intensity ([2]; pH 5.07): 2,790
Fluorescence Intensity ([2]; pH 5.51): 5,280
Fluorescence Intensity ([2]; pH 5.69): 7,130
Fluorescence Intensity ([2]; pH 5.90): 10,250
Fluorescence Intensity ([2]; pH 6.30): 18,790
Fluorescence Intensity ([2]; pH 6.38): 18,720
Fluorescence Intensity ([2]; pH 6.48): 22,820
Fluorescence Intensity ([2]; pH 6.80): 27,620
Fluorescence Intensity ([2]; pH 6.90): 31,730
Fluorescence Intensity ([2]; pH 7.11): 34,510
Fluorescence Intensity ([2]; pH 7.18): 35,740
Fluorescence Intensity ([2]; pH 7.69): 39,880
Fluorescence Intensity ([2]; pH 8.31): 41,950
Fluorescence Intensity ([2]; pH 8.63): 42,930
Fluorescence Intensity ([2]; pH 8.88): 44,240
Fluorescence Intensity ([2]; pH 9.00): 43,280
Fluorescence Intensity ([2]; pH 9.09): 43,110
Fluorescence Intensity ([2]; pH 9.15): 43,140
Fluorescence Intensity ([2]; pH 9.32): 43,550
Fluorescence Intensity ([2]; pH 9.40): 43,850
Fluorescence Intensity ([2]; pH 9.49): 43,340
Fluorescence Intensity ([2]; pH 9.56): 45,080
Fluorescence Intensity ([2]; pH 9.61): 44,640
Fluorescence Intensity ([2]; pH 9.71): 43,930
Fluorescence Intensity ([2]; pH 9.75): 42,610
Fluorescence Intensity ([2]; pH 9.83): 44,070
Fluorescence Intensity ([2]; pH 9.92): 43,670
Fluorescence Intensity ([2]; pH 10.01): 41,900
Fluorescence Intensity ([2]; pH 10.10): 42,170
Fluorescence Intensity ([2]; pH 10.22): 42,800
Fluorescence Intensity ([2]; pH 10.33): 42,170
Fluorescence Intensity ([2]; pH 10.43): 42,570
Fluorescence Intensity ([2]; pH 10.48): 42,410
Fluorescence Intensity ([2]; pH 10.59): 40,450
Fluorescence Intensity ([2]; pH 10.68): 41,370
Fluorescence Intensity ([2]; pH 10.75): 40,520
Fluorescence Intensity ([2]; pH 10.85): 40,140
Fluorescence Intensity ([2]; pH 10.91): 38,790
